From patent US4511559A, “Biologically active polysaccharide concentrates and process for production of preparates containing such substances” (Kozponti Valto-es Hitelbank Rt. InnovacioAlap, priority 1982, dated 1985)
Like-named read-outs stand apart in the source and are kept apart here.

Legend:
rat = assay: in vivo; settings: table 4
Experimental: (§1) The anti-inflammatory activity of the polysaccharide concentrate according to the invention was investigated intraperitoneally on rat according to the paw carrageenan oedema test. Simultaneously the LD50 values of the polysaccharide concentrates (i.p.) were determined.
(§2) The anti-inflammatory activity of the prepared polysaccharide concentrates was determined in comparison to the indomethancin as well using the rat paw carrageenan oedema test. The polysaccharide sample was intraperitoneally injected one hour before the inflammation inducing carrageenan. As reference standard per os applied indomethacin was used, which was suspended in 1% methylcellulose solution, and given through a gastric tube into the stomach one hour prior to the administration of Carrageenan to CFY rats and CFLP mice. The dosage was the same during the toxicity studies as well.
(§3) To develop the PG phase 5 hours are required from the injection of the inflammation inducing carrageenan.

in vivo = settings: rat, in vivo, po, LD50, p.o.
Experimental: as §1, §2, §3

[1] = tested on: rat paw carrageenan oedema; assay: rat paw carrageenan oedema test (anti-inflammatory activity); assay type: in vivo; settings: for Anti-inflammatory activity %: table 4; for ED50: Rattus norvegicus, po, reference standard
Source text: (§4) The anti-inflammatory activity of the polysaccharide concentrates produced according to the invention was investigated on the rat paw carrageenan oedema test according to Winter et al. [Proc. Soc. Exp. Biol. Med. 111. 544. (1962)]. The concentrate has a significant specific activity and in connection with its advantageous anti-inflammatory activity it posseses a remarkably low toxicity.

[2] = tested on: adjuvans arthritis in rat; assay: adjuvans arthritis in rat (chronic inflammation model); assay type: in vivo; settings: 50 mg/kg, intraperitoneal, 3 weeks
Source text: The polysaccharides produced according to the invention show significant effectivity on chronic inflammation models too, for example on adjuvans arthritis in rat, at intraperitoneal treatment for 3 weeks: […]

[3] = rat paw carrageenan oedema test (anti-inflammatory activity); assay type: in vivo; settings: rat, in vivo, po, read-out: Therapeutic index LD50/ED50
Source text: as §4

Compound CC(=O)Oc1ccccc1C(=O)O [Aspyrine] has a Dose/LD50 ratio (rat; dose 400 mg/kg p.o.) of 0.330, an LD50 (in vivo; table 4) of 1200 mg/kg and an Anti-inflammatory activity % ([1]; 400 mg/kg p.o.) of 36%.

CCCCC1C(=O)N(c2ccccc2)N(c2ccccc2)C1=O [Phenylbutazone, phenylbutazone] showed an Anti-inflammatory activity % ([1]; 90 mg/kg p.o.) of 40%, an inhibition ([1]; 100 mg/kg, standard) of 45% and an Inhibiton ([1]; intraperitoneally, rat, 100 mg/kg) of 45.0%. The Anti-inflammatory activity % [2] was 64%.

For COc1ccc2c(c1)c(CC(=O)O)c(C)n2C(=O)c1ccc(Cl)cc1 [Indomethacin, indomethacin], the Dose/LD50 ratio (rat; dose 10 mg/kg p.o.) was 0.580, the LD50 (in vivo; table 2) was 32 mg/kg and the LD50 (in vivo; table 4) was 17 mg/kg. For the same compound, the Anti-inflammatory activity % ([1]; 10 mg/kg p.o.) was 51%, the ED50 ([1]; 2 hours) was 3.14 mg/kg and the ED50 ([1]; 5 hours) was 2.2 mg/kg. The selectivity ratio ([3]; 2 hours) was 10.2 and the selectivity ratio ([3]; 5 hours) was 14.5.
